Drawing on patent publication US8263606B2 (Xenon Pharmaceuticals Inc., priority 2008, dated 2012), this text covers IC50, inhibition and melting point for 25 compounds.

In data set [1] the test system is sodium channel. Kind of data set: Guanidine influx assay (14C-guanidine radiotracer flux, in vitro). It counts as cell-based, human or rat. The following applies: guanidine influx assay using a known cell line that expresses a sodium channel; activity level class. Put shortly:
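Cells stably expressing human or rat sodium channels (~100,000/well, 20–24 h) were exposed in low-sodium choline buffer to test agent plus aconitine activator and 14C-guanidine at ambient temperature. Intracellular 14C-guanidine was counted by scintillation; IC50 fitted by 4-parameter logistic over half-dilutions around 1 μM.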

The target in data set [2] is CYP3A4 (Homo sapiens, UniProt P08684). Put plainly: Cytochrome P450 (CYP450) Inhibition Assay, CYP3A4 (Vivid fluorescence, BOMCC substrate). The following applies: human, P450 Baculosomes (recombinant CYP3A4), probe BOMCC (Vivid substrate).

The structures appear in SMILES notation.

CYP3A4, sequence (P08684 whole entry): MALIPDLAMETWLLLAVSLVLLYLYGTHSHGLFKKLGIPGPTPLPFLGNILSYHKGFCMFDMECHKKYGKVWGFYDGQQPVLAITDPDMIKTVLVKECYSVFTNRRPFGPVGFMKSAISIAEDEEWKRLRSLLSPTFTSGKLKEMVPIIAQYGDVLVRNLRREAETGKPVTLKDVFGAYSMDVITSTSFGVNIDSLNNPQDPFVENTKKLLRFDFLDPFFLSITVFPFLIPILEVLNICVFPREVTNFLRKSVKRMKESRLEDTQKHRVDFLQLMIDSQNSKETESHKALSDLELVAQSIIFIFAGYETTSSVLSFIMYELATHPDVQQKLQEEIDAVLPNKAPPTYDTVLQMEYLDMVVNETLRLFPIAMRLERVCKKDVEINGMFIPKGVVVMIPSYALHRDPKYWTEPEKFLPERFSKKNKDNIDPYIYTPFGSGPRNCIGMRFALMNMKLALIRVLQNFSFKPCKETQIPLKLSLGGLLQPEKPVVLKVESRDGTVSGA

Broadly, the IC50 is the point on the concentration scale where inhibition reaches its midpoint. One may read the inhibition as the relative decrease from the control value, in per cent. What is called melting point is the temperature, or range, at which the solid turns liquid. The compound `N#Cc1ccccc1-c1ccc(CN2C(=O)C3(COc4cc5c(cc43)CCO5)c3ccccc32)cc1` (stereo not drawn) [Example 4.24, 4′-[(2′-oxo-5,6-dihydrospiro[benzo[1,2-b:5,4-b′]difuran-3,3′-indol]-1′(2′H)-yl)methyl]biphenyl-2-carbonitrile] displayed a melting point of 192 to 194 °C. Also, in data set [1], the IC50 is 100 to 1000 nM. Moreover, the inhibition at 10 µM in data set [2] was less than 50%.
In the same order, the values of `C[C@@H](CN1C(=O)C2(COc3cc4c(cc32)CCO4)c2ccccc21)OCOCc1ccccc1` (stereo partly drawn) [Example 4.25, 1′-{(2S)-2-[(benzyloxy)methoxy]propyl}-5,6-dihydrospiro[benzo[1,2-b:5,4-b′]difuran-3,3′-indol]-2′(1′H)-one] are 49 to 52 °C, 100 to 1000 nM and more than 50%.
On to `O=C1N(Cc2ccc3c(c2)OCCO3)c2ccccc2C12COc1cc3c(cc12)CCO3` (stereo not drawn) [Example 4.26, 1′-(2,3-dihydro-1,4-benzodioxin-6-ylmethyl)-5,6-dihydrospiro[benzo[1,2-b:5,4-b′]difuran-3,3′-indol]-2′(1′H)-one], for which the melting point lay within 173 to 175 °C. Further, the IC50 in data set [1] lay in the range of 1 to 100 nM. For the same compound, the inhibition at 10 µM in data set [2] was less than 50%.
For the compound `O=C1N(Cc2ccc(C(F)(F)F)o2)c2cccc(Cl)c2C12COc1cc3c(cc12)CCO3` (stereo not drawn) [Example 4.33, 4′-chloro-1′-{[5-(trifluoromethyl)furan-2-yl]methyl}-5,6-dihydrospiro[benzo[1,2-b:5,4-b′]difuran-3,3′-indol]-2′(1′H)-one], the melting point was in the range of 166 to 169 °C. Also, the IC50 in data set [1] lay within 1 to 100 nM. Moreover, in data set [2], the inhibition at 10 µM is more than 50%.
Take `O=C1N(C[C@H]2CCCO2)c2cccc(Cl)c2C12COc1cc3c(cc12)CCO3` (stereo partly drawn) [Example 4.34, 4′-chloro-1′-[(2R)-tetrahydrofuran-2-ylmethyl]-5,6-dihydrospiro[benzo[1,2-b:5,4-b′]difuran-3,3′-indol]-2′(1′H)-one]: the melting point lay in the range of 78 to 82 °C. The IC50 in data set [1] was in the range of 1 to 100 nM. The inhibition at 10 µM in data set [2] is less than 50%.
In the same order, the values of `O=C1N(C[C@H]2CCCO2)c2cccc(Br)c2C12COc1cc3c(cc12)CCO3` (stereo partly drawn) [Example 4.35, 4′-bromo-1′-[(2R)-tetrahydrofuran-2-ylmethyl]-5,6-dihydrospiro[benzo[1,2-b:5,4-b′]difuran-3,3′-indol]-2′(1′H)-one] are 137 to 141 °C, 1 to 100 nM and more than 50%.
As for `O=C1N(CC2CCOCC2)c2ccccc2C12COc1cc3c(cc12)OCCO3` (stereo not drawn) [Example 4.37, 1′-(tetrahydro-2H-pyran-4-ylmethyl)-2,3-dihydrospiro[furo[2,3-g][1,4]benzodioxine-8,3′-indol]-2′(1′H)-one], the melting point lay in the range of 129 to 131 °C. The IC50 in data set [1] was 1 to 100 nM. For the same compound, in data set [2], the inhibition at 10 µM was less than 50%.
On the same counts, the results for `O=C1N(Cc2ccccn2)c2ccccc2C12COc1cc3c(cc12)OCCO3` (stereo not drawn) [Example 4.41, 1′-(pyridin-2-ylmethyl)-2,3-dihydrospiro[furo[2,3-g][1,4]benzodioxine-8,3′-indol]-2′(1′H)-one] are 208 to 209 °C, 1 to 100 nM and less than 50%.
On the same counts, the results for `O=C1N(C[C@H]2CCCO2)c2ccccc2C12COc1cc3c(cc12)OCCO3` (stereo partly drawn) [Example 4.44, 1′-[(2R)-tetrahydrofuran-2-ylmethyl]-2,3-dihydrospiro[furo[2,3-g][1,4]benzodioxine-8,3′-indol]-2′(1′H)-one] are 174 to 176 °C, 1 to 100 nM and less than 50%.
On the same counts, the results for `COc1ccc(CN2C(=O)C3(COc4cc5c(cc43)OCCO5)c3ccccc32)cc1OC` (stereo not drawn) [Example 4.46, 1′-(3,4-dimethoxybenzyl)-2,3-dihydrospiro[furo[2,3-g][1,4]benzodioxine-8,3′-indol]-2′(1′H)-one] are 209 to 211 °C, 1 to 100 nM and more than 50%.
Turning to `COc1cc(CN2C(=O)C3(COc4cc5c(cc43)OCCO5)c3ccccc32)cc(OC)c1` (stereo not drawn) [Example 4.47, 1′-(3,5-dimethoxybenzyl)-2,3-dihydrospiro[furo[2,3-g][1,4]benzodioxine-8,3′-indol]-2′(1′H)-one], the melting point lay in the range of 192 to 195 °C. Moreover, in data set [1], the IC50 fell in the range of 1 to 100 nM. The inhibition at 10 µM in data set [2] is more than 50%.
In turn, `O=C1N(Cc2ccccn2)c2ccccc2C12COc1cc3c(cc12)OCC3` (stereo not drawn) [Example 4.52, 1′-(pyridin-2-ylmethyl)-6,7-dihydrospiro[benzo[1,2-b:4,5-b′]difuran-3,3′-indol]-2′(1′H)-one] came in with a melting point of 198 to 200 °C. For the same compound, in data set [1], the IC50 is 1 to 100 nM. Moreover, in data set [2], the inhibition at 10 µM is less than 50%.
For the compound `O=C1N(C[C@H]2CCCO2)c2ccccc2C12COc1cc3c(cc12)CCCO3` (stereo partly drawn) [Example 4.53, 1′-[(2R)-tetrahydrofuran-2-ylmethyl]-6,7-dihydro-5H-spiro[furo[3,2-g]chromene-3,3′-indol]-2′(1′H)-one], the melting point was 151 to 156 °C. Besides, the IC50 in data set [1] was in the range of 100 to 1000 nM. Besides, the inhibition at 10 µM in data set [2] was less than 50%.
`Cc1nc2cc3c(cc2s1)C1(CO3)C(=O)N(CCC(C)C)c2ccccc21` (stereo not drawn) [Example 4.56, 2-methyl-1′-(3-methylbutyl)spiro[furo[2,3-f][1,3]benzothiazole-7,3′-indol]-2′(1′H)-one] returned a melting point of 137 to 138 °C. For the same compound, in data set [1], the IC50 lay within 1000 to 10000 nM. For the same compound, the inhibition at 10 µM in data set [2] was more than 50%.
`Cc1nc2cc3c(cc2s1)C1(CO3)C(=O)N(CC2CCOCC2)c2ccccc21` (stereo not drawn) [Example 4.57, 2-methyl-1′-(tetrahydro-2H-pyran-4-ylmethyl)spiro[furo[2,3-f][1,3]benzothiazole-7,3′-indol]-2′(1′H)-one] had a melting point of 186 to 187 °C. Moreover, the IC50 in data set [1] is 1000 to 10000 nM. For the same compound, the inhibition at 10 µM in data set [2] is more than 50%.
`Cc1nc2cc3c(cc2o1)C1(CO3)C(=O)N(C[C@H]2CCCO2)c2ccccc21` (stereo partly drawn) [Example 4.58, 2-methyl-1′-[(2R)-tetrahydrofuran-2-ylmethyl]spiro[furo[2,3-f][1,3]benzoxazole-7,3′-indol]-2′(1′H)-one] registered a melting point of 188 to 190 °C. In addition, the IC50 in data set [1] fell in the range of 1000 to 10000 nM. For the same compound, in data set [2], the inhibition at 10 µM was less than 50%.
In the same order, the values of `CN1C(=O)COc2cc3c(cc21)C1(CO3)C(=O)N(C[C@H]2CCCO2)c2ccccc21` (stereo partly drawn) [Example 4.59, 1-methyl-1′-[(2R)-tetrahydrofuran-2-ylmethyl]-1H-spiro[furo[3,2-g][1,4]benzoxazine-8,3′-indole]-2,2′(1′H-3H)-dione] are 79 to 81 °C, 1000 to 10000 nM and less than 50%.
On the same counts, the results for `Cn1c(=O)oc2cc3c(cc21)C1(CO3)C(=O)N(C[C@H]2CCCO2)c2ccccc21` (stereo partly drawn) [Example 4.60, 1-methyl-1′-[(2R)-tetrahydrofuran-2-ylmethyl]spiro[furo[3,2-f][1,3]benzoxazole-7,3′-indole]-2,2′(1′H,1′H)-dione] are more than 250 °C, 1000 to 10000 nM and less than 50%.
In the same order, the values of `COc1cc2c(cc1C)C1(CO2)C(=O)N(C[C@H]2CCCO2)c2ccccc21` (stereo partly drawn) [Example 4.61, 6-methoxy-5-methyl-1′-[(2R)-tetrahydrofuran-2-ylmethyl]spiro[1-benzofuran-3,3′-indol]-2′(1′H)-one] are 151 to 153 °C, 1000 to 10000 nM and less than 50%.
For `COc1cc2c(cc1C)C1(CO2)C(=O)N(CC2CCCCO2)c2ccccc21` (stereo not drawn) [Example 4.63, 6-methoxy-5-methyl-1′-(tetrahydro-2H-pyran-2-ylmethyl)spiro[1-benzofuran-3,3′-indol]-2′(1′H)-one], the melting point was in the range of 180 to 182 °C. Further, the IC50 in data set [1] was in the range of 1000 to 10000 nM. Besides, the inhibition at 10 µM in data set [2] is more than 50%.
Compound `COc1cc2c(cc1F)C1(CO2)C(=O)N(CC2CCCCO2)c2ccccc21` (stereo not drawn) [Example 4.64, 5-fluoro-6-methoxy-1′-(tetrahydro-2H-pyran-2-ylmethyl)spiro[1-benzofuran-3,3′-indol]-2′(1′H)-one] displayed a melting point of 131 to 133 °C. The IC50 in data set [1] fell in the range of 100 to 1000 nM. Moreover, the inhibition at 10 µM in data set [2] is less than 50%.
In the same order, the values of `COc1cc2c(cc1F)C1(CO2)C(=O)N(Cc2ccccn2)c2ccccc21` (stereo not drawn) [Example 4.65, 5-fluoro-6-methoxy-1′-(pyridin-2-ylmethyl)spiro[1-benzofuran-3,3′-indol]-2′(1′H)-one] are 142 to 144 °C, 100 to 1000 nM and less than 50%.
In the same order, the values of `COc1cc2c(cc1F)C1(CO2)C(=O)N(C[C@H]2CCCO2)c2ccccc21` (stereo partly drawn) [Example 4.66, 5-fluoro-6-methoxy-1′-[(2R)-tetrahydrofuran-2-ylmethyl]spiro[1-benzofuran-3,3′-indol]-2′(1′H)-one] are 106 to 116 °C, 100 to 1000 nM and less than 50%.
In the same order, the values of `COc1cc2c(cc1F)C1(CO2)C(=O)N(Cc2ccccc2)c2ccccc21` (stereo not drawn) [Example 4.67, 1′-benzyl-5-fluoro-6-methoxyspiro[1-benzofuran-3,3′-indol]-2′(1′H)-one] are 160 to 162 °C, 100 to 1000 nM and less than 50%.
For `O=C1CC[C@@H](CN2C(=O)C3(COc4cc5c(cc43)OCO5)c3ccccc32)N1` (stereo partly drawn) [Example 4.72, 1′-{[(2S)-5-oxopyrrolidin-2-yl]methyl}spiro[furo[2,3-f][1,3]benzodioxole-7,3′-indol]-2′(1′H)-one], the melting point fell in the range of 121 to 130 °C. In addition, the IC50 in data set [1] fell in the range of 1000 to 10000 nM. For the same compound, in data set [2], the inhibition at 10 µM was more than 50%.
